Where a name gives a salt, the structure may show the parent alone. Read-outs that look alike come from different tables or passages of the source.
Legend:
Assay type in all cases: cell-based
HTT [1] = assay: Splicing assay (RT-qPCR on cell lysates) monitoring HTT splice variants: AJ and CJ mRNA; conditions: concentration having 50% response
In short: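 Cell lysates were analysed by RT-qPCR, with ΔCt taken against a housekeeping gene and normalised to DMSO to give RQ by 2^(−ΔΔCt). Assay windows were set at 9 ΔCt for AJ and 3.5 ΔCt for CJ, and 4-parameter fits gave AC50 for the AJ increase and IC50 for the CJ decrease.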

HTT [2] = assay: Gene panel canonical junction qPCR assay, HTT CJ mRNA; conditions: Table 9, CJ mRNA decrease, read-out: HTT IC50 (decrease in CJ mRNA levels)
Method: (§1) To set up 10 uL RT-qPCR reactions, cell lysates were transferred to 384-well qPCR plates containing the master mix according to the table below. The plates were sealed, gently vortexed, and spun down before the run. The volumes were adjusted accordingly in some instances where the reaction was carried in 20 uL. The table below summarizes the components of the RT-qPCR reactions:
(§2) The RT-qPCR reaction was performed using a QuantStudio (ThermoFisher) under the following fast cycling conditions. All samples and standards were analyzed at least in duplicate. In some instances, bulk room temperature (RT) step of 5-10 minutes was completed for all plates before proceeding with qPCR. The table below summarizes the PCR cycle:
(§3) The data analysis was performed by first determining the ΔCt vs the housekeeper gene. This ΔCt was then normalized against the DMSO control (ΔΔCt) and converted to RQ (relative quantification) using the 2^(−ΔΔCt) equation. The RQ were then converted to a percentage response by arbitrarily setting an assay window of 3.5 ΔCt for HTT-CJ and an assay window of 9 ΔCt for HTT-AJ. […] The percentage response was then fitted to the 4 parametric logistic equation to evaluate the concentration dependence of compound treatment. The increase in AJ mRNA is reported as AC50 (compound concentration having 50% response in AJ increase) while the decrease in CJ mRNA levels is reported as IC50 (compound concentration having 50% response in CJ decrease).
(§4) Additional studies were carried out for a larger panel of genes using the protocol provided above. The junction between flanking upstream and downstream exons was used to design canonical junction qPCR assays. At least one of the forward primer, reverse primer or the CY5-labeled 5′ nuclease probe (with 3′ quencher such as ZEN/Iowa Black FQ) was designed to overlap with the exon junction to capture the CJ mRNA transcript. BLAST was used to confirm the specificity of the probeset and parameters such as melting temperature, GC content, amplicon size, and primer dimer formation are considered during their design. Data for the decrease in CJ mRNA levels for three exemplary genes (HTT, SMN2, and Target C) analyzed in this panel are reported as IC50 (compound concentration having 50% response in CJ decrease).

SMN2 = assay: Gene panel canonical junction qPCR assay, SMN2 CJ mRNA; conditions: Table 9, CJ mRNA decrease, read-out: SMN2 IC50 (decrease in CJ mRNA levels)
Method: as §1, §2, §3, §4

Target C = assay: Gene panel canonical junction qPCR assay, Target C CJ mRNA; conditions: Table 9, CJ mRNA decrease, read-out: Target C IC50 (decrease in CJ mRNA levels)
Method: as §1, §2, §3, §4

[3] = Table 8, decrease in CJ mRNA, read-out: HTT CJ AC50
[4] = Table 8, increase in AJ mRNA, read-out: HTT AJ AC50
[5] = Table 7, decrease in CJ mRNA, read-out: HTT CJ AC50
[6] = Table 7, increase in AJ mRNA, read-out: HTT AJ AC50

## CCN(c1ccc(-c2ccc(-c3cn[nH]c3)c3ncsc23)nn1)C1CCNCC1 [Compound 224, N-ethyl-N-(piperidin-4-yl)-6-[4-(1H-pyrazol-4-yl)-1,3-benzothiazol-7-yl]pyridazin-3-amine]
HTT [1]; [3]
  AC50: > 10 µM
HTT [1]; [4]
  AC50: > 10 µM
HTT [2]
  IC50: > 10 µM
SMN2
  IC50: 1 to 10 µM
Target C
  IC50: > 10 µM

## CN(c1ccc(-c2ccc(-c3cn[nH]c3)c3ncsc23)nn1)[C@H]1C[C@]2(C)CC[C@](C)(C1)N2 [Compound 204, (exo-)-N,1,5-trimethyl-N-[6-[4-(1H-pyrazol-4-yl)-1,3-benzothiazol-7-yl]pyridazin-3-yl]-8-azabicyclo[3.2.1]octan-3-amine]
HTT [1]; [3]
  AC50: < 0.1 µM
HTT [1]; [4]
  AC50: < 0.1 µM
HTT [2]
  IC50: < 0.1 µM
SMN2
  IC50: < 0.1 µM
Target C
  IC50: < 0.1 µM

## c1nc2c(-c3cn[nH]c3)ccc(-c3ccc(N4CCNCC4)nn3)c2s1 [Compound 185]
HTT [1]; [5]
  AC50: > 5 µM
HTT [1]; [6]
  AC50: > 5 µM
HTT [1]; [3]
  AC50: > 10 µM
HTT [1]; [4]
  AC50: 1 to 10 µM
HTT [2]
  IC50: > 10 µM
SMN2
  IC50: 0.1 to 1 µM
Target C
  IC50: > 10 µM

## c1nc2c(-c3cn[nH]c3)ccc(-c3ccc(N4C[C@H]5CNC[C@H]5C4)nn3)c2s1 [Compound 194, 7-{6-[(exo)-hexahydro-1H-pyrrolo[3,4-c]pyrrol-2-yl]pyridazin-3-yl}-4-(1H-pyrazol-4-yl)-1,3-benzothiazole hydrochloride]
HTT [1]; [3]
  AC50: 1 to 10 µM
HTT [1]; [4]
  AC50: > 10 µM
HTT [2]
  IC50: 1 to 10 µM
SMN2
  IC50: 0.1 to 1 µM
Target C
  IC50: > 10 µM

## c1nc2c(-c3cn[nH]c3)ccc(-c3ccc(N4CCC5(CCNC5)CC4)nn3)c2s1 [Compound 192]
HTT [1]; [3]
  AC50: > 10 µM
HTT [1]; [4]
  AC50: > 10 µM
HTT [2]
  IC50: > 10 µM
SMN2
  IC50: > 10 µM
Target C
  IC50: > 10 µM

## c1nc2c(-c3cn[nH]c3)ccc(-c3ccc(N4CC5(CCNCC5)C4)nn3)c2s1 [Compound 197]
HTT [1]; [3]
  AC50: 1 to 10 µM
HTT [1]; [4]
  AC50: 1 to 10 µM
HTT [2]
  IC50: 1 to 10 µM
SMN2
  IC50: 1 to 10 µM
Target C
  IC50: > 10 µM

## c1n[nH]cc1-c1ccc(-c2ccc(S[C@@H]3C[C@H]4CC[C@@H](C3)N4)nn2)c2[nH]ncc12 [Compound 221]
HTT [1]; [3]
  AC50: > 10 µM
HTT [1]; [4]
  AC50: > 10 µM
HTT [2]
  IC50: > 10 µM
SMN2
  IC50: > 10 µM
Target C
  IC50: > 10 µM

## CC1(C)CC(Nc2ccc(-c3ccc(-c4cn[nH]c4)c4ncsc34)nn2)CC(C)(C)N1 [Compound 186]
HTT [1]; [5]
  AC50: < 0.5 µM
HTT [1]; [6]
  AC50: < 0.5 µM
HTT [1]; [3]
  AC50: < 0.1 µM
HTT [1]; [4]
  AC50: < 0.1 µM
HTT [2]
  IC50: < 0.1 µM
SMN2
  IC50: < 0.1 µM
Target C
  IC50: 0.1 to 1 µM

## [2H]C([2H])([2H])N(c1ccc(-c2ccc(-c3cn[nH]c3)c3ncsc23)nn1)[C@@H]1C[C@H]2CCC[C@@H](C1)N2 [Compound 227]
HTT [1]; [3]
  AC50: < 0.1 µM
HTT [1]; [4]
  AC50: < 0.1 µM
HTT [2]
  IC50: < 0.1 µM
SMN2
  IC50: < 0.1 µM
Target C
  IC50: < 0.1 µM

## CN(c1ccc(-c2ccc(-c3cn[nH]c3)c3ncsc23)nn1)[C@@H]1C[C@H]2CC[C@@H](C1)N2 [Compound 213, (exo)-N-methyl-N-{6-[4-(1H-pyrazol-4-yl)-1,3-benzothiazol-7-yl]pyridazin-3-yl}-8-azabicyclo[3.2.1]octan-3-amine]
HTT [1]; [3]
  AC50: < 0.1 µM
HTT [1]; [4]
  AC50: < 0.1 µM
HTT [2]
  IC50: < 0.1 µM
SMN2
  IC50: < 0.1 µM
Target C
  IC50: < 0.1 µM

## c1nc2c(-c3cn[nH]c3)ccc(-c3ccc(O[C@@H]4C[C@H]5CCC[C@@H](C4)N5)nn3)c2s1 [Compound 209]
HTT [1]; [3]
  AC50: > 10 µM
HTT [1]; [4]
  AC50: > 10 µM
HTT [2]
  IC50: > 10 µM
SMN2
  IC50: 0.1 to 1 µM
Target C
  IC50: > 10 µM

## c1nc2c(-c3cn[nH]c3)ccc(-c3ccc(NC4CNC4)nn3)c2s1 [Compound 196]
HTT [1]; [3]
  AC50: > 10 µM
HTT [1]; [4]
  AC50: > 10 µM
HTT [2]
  IC50: > 10 µM
SMN2
  IC50: > 10 µM
Target C
  IC50: > 10 µM
